Data: patent US10105365B2, “Solid antiviral dosage forms” (AbbVie Inc., priority 2014, dated 2018)

Tests used:
[1] = Sink Conditions dissolution testing of Formulation C5-12; format: physicochemical; conditions: N = 6
Protocol: The release profiles of Formulation C5-12 of Example 1 were evaluated in a Sink Conditions dissolution study. The study was conducted in 900 mL of dissolution medium using a standard USP dissolution Apparatus 2 (paddle) operating at 100 RPM at 37±0.5° C. The dissolution medium was a 0.05 M sodium phosphate buffer pH 6.8 with 15 mM cTAB as a surfactant.

[2] = Human pharmacokinetic study, Example 5 Arm II (multiple dose, crossover); format: in vivo; conditions: for AUC: read-out: AUC24, geometric mean; for concentration at 24 h: read-out: C24, geometric mean
Protocol: (§1) A Phase 1, non-fasting, open-label, two-arm, four-period, randomized, crossover study was conducted to compare and characterize the pharmacokinetics of (i) Triple Tablet when co-administered with Single Tablet, and (ii) Formulation C5-12 as discussed below. Part 1 was a single dose, two-treatment, randomized, four period, two sequence replicated crossover study with 88 subjects. Doses in the four periods were separated by at least 10 days. Part 2 was a multiple-dose, two-treatment, two period, randomized crossover study with 66 subjects. Dosing in each period was 14 days and doses in the two periods were separated by at least 10 days.
(§2) Adult male and female subjects in general good health were selected to participate in the study according to the selection criteria. Subjects meeting the selection criteria were randomly assigned to one of the sequences of Regimens A and B (four sequences for Arm I and two sequences for Arm II) as shown below in Table 5-A.
(§3) Study drug was administered as provided below in Table 5-B.
(§4) Each study regimen was taken orally with approximately 240 mL of water approximately 30 minutes after the start of standardized breakfast. Study regimens were administered orally in the morning on Study Day 1 of each period. Serial blood samples for pharmacokinetic analysis were collected 72 hours after dosing in each period.

[3] = Human pharmacokinetic study, Example 5 Arm I (single dose, replicated crossover); format: in vivo; conditions: single dose, non-fasting; for AUC(0-inf) / Cmax: both sexes, human, in vivo, oral
Protocol: as §1, §2, §3, §4
Tables 5-C, 5-D, 5-E, and 5-F below report the Arm I pharmacokinetic data for Formulation C5-12 (separately reported for each of Compounds 1, 2, 3, and 4). Table 5-G presents the results of a relative bioavailability and 90% confidence interval analysis of the pharmacokinetic data for Formulation C5-12 relative to the reference regimen. The data presented in Tables 5-C through 5-G are preliminary data and are subject to database lock and final data verification by the statistician.

[4] = format: physicochemical
Text: Moreover, hot melt extrusion, a method commonly used to prepare amorphous solid dispersions, often involves the use of high temperature to assist the formation of a melt that is composed of all components of the final solid dispersion.
This allows the preparation of smaller solid dosage forms (e.g., tablets) comprising all three drug substances.

[5] = Human pharmacokinetic study, Example 4 Arm II (single dose, crossover); format: in vivo; conditions: for AUC(0-inf): read-out: AUC∞, geometric mean; for concentration at 24 h: read-out: C24, geometric mean
Protocol: Formulation C5-12 and a second formulation were tested in Arm II of the study. Adult male and female subjects (N=30 for combined Arm I and Arm II studies) in general good health were selected to participate in the study according to the selection criteria. Subjects meeting the selection criteria were randomly assigned to one of the Regimen sequences as shown below in Table 4-A.
Study drug was administered as provided below in Table 4-B.
as §4, with “each period. For Regimen A the evening dose of the Single Tablet was taken orally with approximately 240 mL of water approximately 30 minutes after the start of the evening snack. Serial blood” for “each period. Serial blood”
The data presented in Tables 4-C through 4-G are preliminary data and are subject to database lock and final data verification.

[6] = Human pharmacokinetic study, Example 4 Arm III (14-day multiple dose, steady state); format: in vivo; conditions: three Formulation C5-12 tablets daily for 14 days, non-fasting
[7] = Example 5 Arm II, multiple dose 14 days, non-fasting, Regimen B (reference regimen): two Triple Tablets + one Single Tablet morning, one Single Tablet evening, N = 63
[8] = both sexes, human, blood, oral, 3 film-coated Formulation C5-12 tablets daily, Example 5 Arm II, multiple dose 14 days, non-fasting, Regimen A (C5-12): three film-coated Formulation C5-12 tablets daily, N = 63
[9] = both sexes, human, blood, oral, Example 5 Arm II, multiple dose 14 days, non-fasting, Regimen B (reference regimen): two Triple Tablets + one Single Tablet morning, one Single Tablet evening, N = 63
[10] = Regimen A (C5-12): three film-coated Formulation C5-12 tablets, N = 172
[11] = Regimen B (reference regimen): two Triple Tablets + one Single Tablet morning, one Single Tablet evening, N = 171
[12] = Example 4 Arm II, single dose, non-fasting, Regimen E (C5-12): three Formulation C5-12 tablets in the morning, N = 13
[13] = both sexes, human, blood, oral, 3 Formulation C5-12 tablets, Example 4 Arm II, single dose, non-fasting, Regimen E (C5-12): three Formulation C5-12 tablets in the morning, N = 13
[14] = both sexes, human, blood, oral, Example 4 Arm II, single dose, non-fasting, Regimen A (reference regimen): two Triple Tablets + one Single Tablet morning, one Single Tablet evening, N = 13

## CC(C)c1nc(CN(C)C(=O)N[C@H](C(=O)N[C@@H](Cc2ccccc2)C[C@H](O)[C@H](Cc2ccccc2)NC(=O)OCc2cncs2)C(C)C)cs1 [Compound 3, 1,3-thiazol-5-ylmethyl N-[(2S,3S,5S)-3-hydroxy-5-[(2S)-3-methyl-2-{[methyl({[2-(propan-2-yl)-1,3-thiazol-4-yl]methyl})carbamoyl]-amino}butanamido]-1,6-diphenylhexan-2-yl]carbamate, reference compound]
[1]; 1 hour, 900 mL 0.05 M sodium phosphate buffer pH 6.8, 15 mM cTAB, USP Apparatus 2, 100 RPM, 37 °C
  % Released: 58%
[1]; 4 hours, pH 6.8 buffer, 15 mM cTAB
  % Released: 99%
[1]; 6 hours, pH 6.8 buffer, 15 mM cTAB
  % Released: 100%
[1]; 8 hours, pH 6.8 buffer, 15 mM cTAB
  % Released: 103%
[1]; 12 hours, pH 6.8 buffer, 15 mM cTAB
  % Released: 102%
[1]; 16 hours, pH 6.8 buffer, 15 mM cTAB
  % Released: 100%
[2]; [7]
  Cmax, arithmetic mean, % CV: (1800,44) ng/mL
  Cmax, geometric mean: 1680 ng/mL
[2]; [8]
  half-life: 4.6 h
  AUC: 8670 ng·h/mL
  concentration at 24 h: 36.2 ng/mL
[2]; both sexes, human, blood, oral, 3 film-coated Formulation C5-12 tablets daily, Example 5 Arm II, multiple dose 14 days, non-fasting, Regimen A (C5-12): three film-coated Formulation C5-12 tablets daily, N = 63, read-out: Cmax, geometric mean
  Cmax: 1340 ng/mL
[2]; [9]
  AUC: 9580 ng·h/mL
  concentration at 24 h: 35.1 ng/mL
[2]; both, human, in vivo, 14 days
  Cmax,ss lower than Cmax,ss for the reference regimen: 21%
[2]; in vivo
  Exposures (C24,ss and AUC24,ss) versus the reference regimen: bioequivalent
[3]; 3 film-coated Formulation C5-12 tablets, Regimen A (C5-12): three film-coated Formulation C5-12 tablets, N = 172, read-out: AUC∞, geometric mean
  AUC(0-inf): 8090 ng·h/mL
[3]; 3 film-coated Formulation C5-12 tablets, Regimen A (C5-12): three film-coated Formulation C5-12 tablets, N = 172, read-out: Cmax, geometric mean
  Cmax: 1130 ng/mL
[3]; Regimen B (reference regimen): two Triple Tablets + one Single Tablet morning, one Single Tablet evening, N = 171, read-out: AUC∞, geometric mean
  AUC(0-inf): 8750 ng·h/mL
[3]; Regimen B (reference regimen): two Triple Tablets + one Single Tablet morning, one Single Tablet evening, N = 171, read-out: Cmax, geometric mean
  Cmax: 1430 ng/mL
[3]; [10]
  AUCt, geometric mean: 7450 ng·h/mL
  Tmax, first value (geometric mean): 4.0 h
  t1/2: 4.52 h
[3]; [11]
  AUCt, geometric mean: 8610 ng·h/mL
  t1/2: 4.47 h
[4]
  Degradation in hot melt extrusion: well within the acceptable levels
  Temperature beyond which degradation can reach unacceptable levels: > 140 °C
[5]; Example 4 Arm II, single dose, non-fasting, Regimen A (reference regimen): two Triple Tablets + one Single Tablet morning, one Single Tablet evening, N = 13
  Cmax, geometric mean: 1170 ng/mL
[5]; [12]
  AUCt, geometric mean: 8160 ng·h/mL
  Cmax, geometric mean: 1160 ng/mL
  t1/2: 4.2 h
[5]; [13]
  AUC(0-inf): 8270 ng·h/mL
  concentration at 24 h: 38.8 ng/mL
[5]; both sexes, human, blood, oral, 3 Formulation C5-12 tablets, Example 4 Arm II, single dose, non-fasting, Regimen E (C5-12): three Formulation C5-12 tablets in the morning, N = 13, read-out: Tmax
  Tmax: 4.9 h
[5]; [14]
  half-life: 4.9 h
  concentration at 24 h: 37 ng/mL
[5]; both sexes, human, in vivo, Example 4 Arm II, single dose, non-fasting, Regimen A (reference regimen): two Triple Tablets + one Single Tablet morning, one Single Tablet evening, N = 13, read-out: AUCt, geometric mean
  AUC(0-t): 7710 ng·h/mL
[5]; both sexes, human, in vivo, Example 4 Arm II, single dose, non-fasting, Regimen A (reference regimen): two Triple Tablets + one Single Tablet morning, one Single Tablet evening, N = 13
  AUC(0-inf): 7900 ng·h/mL
[5]; both, human, in vivo, 24 h
  C24, arithmetic mean, % CV: (46.3, 62) ng/mL
[6]; human, in vivo, oral, 3 Formulation C5-12 tablets daily, Day 1, N = 14
  Tmax: 5.4 h
[6]; human, in vivo, oral, 3 Formulation C5-12 tablets daily, Day 1, N = 14, read-out: C24, geometric mean
  concentration at 24 h: 34.7 ng/mL
[6]; human, in vivo, oral, 3 Formulation C5-12 tablets daily, Day 14, N = 14
  Tmax: 4.7 h
[6]; human, in vivo, oral, 3 Formulation C5-12 tablets daily, Day 14, N = 14, read-out: AUC24, geometric mean
  AUC: 10700 ng·h/mL
[6]; human, in vivo, oral, 3 Formulation C5-12 tablets daily, Day 14, N = 14, read-out: C24, geometric mean
  concentration at 24 h: 40 ng/mL
[6]; human, in vivo, oral, 3 Formulation C5-12 tablets daily, Day 14, N = 14, read-out: Cmax, geometric mean
  Cmax: 1430 ng/mL
[6]; Day 1, N = 14
  AUC24, geometric mean: 7230 ng·h/mL
  Cmax, geometric mean: 921 ng/mL
[6]; Day 14, N = 14
  t1/2: 4.0 h
  β: 0.174 h⁻¹
